Here are results for 9 compounds from patent publication US10040804B2, “Compounds targeting proteins, compositions, methods, and uses thereof” (BioTheryX, Inc., priority 2016, dated 2018).

For one test, the system named is IL-2. Briefly: anti-CD3-induced IL-2 secretion in PBMCs. The test is classed as cell-based. The note with it: Homo sapiens, PBMC, anti-CD3 stimulated PBMCs, 24 h, DMSO = 1.0, read-out: Fold Change IL-2; for fold induction at 5 µM: compound concentration 5 μM; for fold induction at 10 µM: compound concentration 10 μM. The method, then: FIGS. 4 and 9D are graphs showing anti-CD3-induced IL-2 secretion in PBMCs. 1 ug/mL anti-CD3 (OKT-3) antibody in PBS were coated onto 96-well plates overnight at 4° C. Approximately 550,000 PBMCs were added to each well, followed by addition of DMSO only, Compound 1-8 at 10 μM (FIG. 4) or Compound 9 at 0.1 μM or 1 μM (FIG. 9D), or 10 μM lenalidomide (rev). Induction was measured after 24 h as fold difference from the DMSO stimulated control.
For the IL-2 analysis, 96 well plates were precoated with 1 ug/mL anti-human CD3 antibody (OKT3, eBioscience Inc.). After washing with PBS, compounds were added to the wells (50 μL/well) followed by PBMCs diluted at 3-4 million cells/mL (150 μL/well). Plates were incubated for 24 h and the supernatants collected for Mesoscale IL-2 analysis.
Compound activity was measured as fold difference from the DMSO control. IL-1-beta activity is shown in FIG. 1; IL-6 activity is shown in FIG. 2; TNF-α activity is shown in FIG. 3; and IL-2 activity is shown in FIG. 4.

The next test concerns Molm-13 cells. Briefly: Molm-13 cell viability (CellTiter-Glo). Type of test: cell-based. The settings on record: Homo sapiens, MOLM-13, read-out: % Inhibition (MOLM-13 Cell Viability); for cytotoxicity at 10 µM: compound concentration 10 μM. The procedure: (§1) FIG. 10A is a graph showing antiproliferative activity in H1048 (SCLC) cells. FIG. 10B is a graph showing antiproliferative activity in Molm-13 (AML) cells. In FIGS. 10A and 10B, the cells were incubated for 72 hrs with Compound 9 at the indicated concentrations or DMSO. Compound activity was measured based on the signal from remaining viable cells.
(§2) Molm-13 cells were cultivated in RPMI-1640 (10% FBS/1% pen-strep) and were plated in white walled 96-well plates at 20,000 cells/well. H1048 cells were cultured in DMEM:F12 media supplemented with 5% fetal bovine serum, insulin, transferrin, sodium selenite, hydrocortisone, β-estradiol, penicillin and streptomycin, and were plated in white walled 96-well plates at 20,000 cells/well. MDA-MB-231 cells were cultured in DMEM media supplemented with 10% fetal bovine serum, penicillin and streptomycin, and were plated in white walled 96-well plates at 10,000 cells/well. Cells were treated with compound or DMSO (0.1%, control) and the cultures were incubated for 3 days at 37° C. and 5% CO2. Following the incubation period, 100 μL of CellTiterGlow (CTG) reagent (CellTiter-Glo® Luminescent Cell Viability Assay, Promega (Madison, Wis.)) was added to each well. Following a 10 min incubation with shaking, luminescence was measured using a Victor Wallac Luminometer.
In general terms: ATP-based viability assays read luminescence as a measure of living cells.

For another test, the system named is IL-1β. Briefly: IL-1β expression in LPS stimulated PBMCs (Meso Scale). The test is classed as cell-based, human. The settings on record: Homo sapiens, PBMC; for inhibition at 5 µM: compound concentration 5 μM; for inhibition at 10 µM: compound concentration 10 μM. The method, then:
FIGS. 5 and 9A are graphs showing IL-1-beta expression in LPS stimulated peripheral blood mononuclear cells (PBMCs), PBMCs were plated in 96-well plates and pretreated with compound (Compound 1-9 individually) for 1 h, and then induced with 100 ng/mL LPS for 18-24 h. Cytokines in the media were measured according to MesoScale protocol. Negative control wells were treated with DMSO. Compound activity is measured as a percentage of LPS-induced activity. “Rev” is lenalidomide.
(§3) Frozen primary blood mononuclear cells (PBMCs) and frozen CD14+ mobilized peripheral blood monocytes were purchased from AllCells. Cells were quick thawed, and washed 1-time with RPMI-1640/10% FBS/1% Penicillin/1% Streptomycin and plated in 96-well plates at 200,000 cells per well. Cells were pretreated with DMSO only, Compound 5013 (lenolidamide) or the indicated compound for 1 h and then induced with 100 ng/mL lipopolysaccharide (LPS) for 18-24 h. The supernatant was analyzed for IL-1 beta, IL-6, and TNF-α using Meso Scale assay according to manufacturer's protocol. The negative control wells were treated with DMSO.
(§4) PBMCs: AllCells PB003F, Normal Peripheral Blood MNC.
(§5) Media: RPMI 1640/10% FBS/1% Pen-Strep.

The next test relates to TNF-α. Briefly: TNF-α expression in LPS stimulated PBMCs (Meso Scale). The test is classed as cell-based, human. The settings on record: Homo sapiens, PBMC; for inhibition at 5 µM: compound concentration 5 μM; for inhibition at 10 µM: compound concentration 10 μM. The procedure: FIGS. 7 and 9C are graphs showing TNF-a expression in LPS stimulated peripheral blood mononuclear cells (PBMCs). PBMCs were plated in 96-well plates and pretreated with compound (Compound 1-9 individually) for 1 h, and then induced with 100 ng/mL LPS for 18-24 h. Cytokines in the media were measured according to MesoScale protocol. The negative control wells were treated with DMSO. Compound activity is measured as a percentage of LPS-induced activity. “Rev” is lenalidomide.
as §3, §4, §5

In the next test the test system is IL-6. Briefly: IL-6 expression in LPS stimulated PBMCs (Meso Scale). Type of test: cell-based, human. The settings on record: Homo sapiens, PBMC, LPS-stimulated PBMCs; for inhibition at 5 µM: compound concentration 5 μM; for inhibition at 10 µM: compound concentration 10 μM. The procedure:
FIGS. 6 and 9B are graphs showing IL-6 expression in LPS stimulated peripheral blood mononuclear cells (PBMCs). PBMCs were plated in 96-well plates and pretreated with compound (Compound 1-9 individually) for 1 h, and then induced with 100 ng/mL LPS for 18-24 h. Cytokines were measured according to MesoScale protocol. Negative control wells were treated with DMSO. Compound activity was measured as a percentage of LPS-induced activity. “Rev” is lenalidomide.
as §3, §4, §5

The next test concerns the target T1, GSPT1 (Homo sapiens, UniProt P15170).
T1 construct: Whole cell extracts were prepared using RIPA buffer according to manufacturer's protocol (Pierce); endogenous in cells
Briefly: GSPT1 protein levels by Western Blot analysis. The settings on record: DMSO = 100.00; for remaining activity at 0.1 µM: 100 nM compound concentration; for remaining activity at 1 µM: 1 μM compound concentration. Type of test: cell-based. The method, then: Cells were lysed using RIPA Buffer (Pierce) and a Western Blot analysis was performed using anti-GSPT1 and anti-β-actin antibodies. FIG. 11B is a graph showing the expression levels of GSPT1 protein in Molm-13 (AML) cells. Protein expression levels were measured using the LiCor Odyssey instrumentation and methods.
Western Blot Protocol: Cell lines were grown in RPMI 1640 supplemented with streptomycin, penicillin and 10% fetal bovine serum.
Cells were cultured at approximately 10^6 cells per mL and incubated in DMSO or each of the indicated compounds for 6-8 h. Whole cell extracts were prepared using RIPA buffer according to manufacturer's protocol (Pierce). Briefly, 2×10^6 cells were washed once in PBS, the cell pellets were resuspended in RIPA buffer and allowed to incubate for 15 minutes on ice. Cells debris was removed by centrifugation and the cleared whole cell lysates were transferred to new tubes for further analysis.
For Western blot analysis, whole cell protein extracts were separated on 4-12% SDS-polyacrylamide gels, transferred to nitrocellulose, and probed with the indicated primary antibodies. Membranes were subsequently washed and probed with the appropriate IRDye secondary antibodies (LI-COR). The signal was detected using the Odyssey Imaging System (LI-COR).
GSPT1: Rabbit anti-GSPT1 was obtained from Abcam, ab126090 (Cambridge, Eng.)
(In general: In western blotting, separated proteins are transferred to a membrane and probed.)

The next test has as its system H1048 cells. The experiment in a line: H1048 cell viability (CellTiter-Glo). Type of test: cell-based. The settings on record: Homo sapiens, NCI-H1048, 72 h, H1048, 3 days, DMSO = 100.00; for viability at 1 µM: 1 μM compound concentration; for viability at 10 µM: 10 μM compound concentration. The procedure: as §1, §2
The subject of the next test is MDA-MB-231 cells. Briefly: MDA-MB-231 cell viability (CellTiter-Glo). The note with it: Homo sapiens, 72 h, 3 days, DMSO = 100.00; for viability at 1 µM: 1 μM compound concentration; for viability at 10 µM: 10 μM compound concentration. Type of test: cell-based. The procedure: as §2

Each structure is given as a SMILES string.

T1 sequence (P15170 whole entry): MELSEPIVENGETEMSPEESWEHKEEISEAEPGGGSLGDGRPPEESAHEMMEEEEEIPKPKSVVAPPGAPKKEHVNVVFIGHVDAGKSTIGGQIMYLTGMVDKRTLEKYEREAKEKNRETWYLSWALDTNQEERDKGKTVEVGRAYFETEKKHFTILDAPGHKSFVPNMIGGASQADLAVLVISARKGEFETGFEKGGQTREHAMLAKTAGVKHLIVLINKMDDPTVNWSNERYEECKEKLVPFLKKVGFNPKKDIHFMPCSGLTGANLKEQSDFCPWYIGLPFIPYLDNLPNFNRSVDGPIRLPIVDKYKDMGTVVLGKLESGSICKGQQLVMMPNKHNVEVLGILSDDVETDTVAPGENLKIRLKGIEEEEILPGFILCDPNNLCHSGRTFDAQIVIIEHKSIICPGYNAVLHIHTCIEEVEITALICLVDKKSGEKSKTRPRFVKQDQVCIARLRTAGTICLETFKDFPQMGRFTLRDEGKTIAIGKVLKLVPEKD
T1 sequence (Q96SW2 whole entry, further chain): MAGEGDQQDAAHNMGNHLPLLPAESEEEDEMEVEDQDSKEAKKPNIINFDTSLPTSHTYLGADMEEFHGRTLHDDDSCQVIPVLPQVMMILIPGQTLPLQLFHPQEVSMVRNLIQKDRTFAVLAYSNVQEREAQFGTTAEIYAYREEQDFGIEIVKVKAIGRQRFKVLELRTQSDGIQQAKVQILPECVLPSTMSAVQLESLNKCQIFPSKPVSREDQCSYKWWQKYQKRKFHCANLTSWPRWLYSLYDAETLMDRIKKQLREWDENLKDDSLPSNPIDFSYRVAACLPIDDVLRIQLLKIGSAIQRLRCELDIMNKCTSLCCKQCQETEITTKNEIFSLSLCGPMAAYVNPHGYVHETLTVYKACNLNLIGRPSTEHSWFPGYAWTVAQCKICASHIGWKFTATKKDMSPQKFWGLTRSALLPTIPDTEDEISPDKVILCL
T1 sequence (Q16531 whole entry partner): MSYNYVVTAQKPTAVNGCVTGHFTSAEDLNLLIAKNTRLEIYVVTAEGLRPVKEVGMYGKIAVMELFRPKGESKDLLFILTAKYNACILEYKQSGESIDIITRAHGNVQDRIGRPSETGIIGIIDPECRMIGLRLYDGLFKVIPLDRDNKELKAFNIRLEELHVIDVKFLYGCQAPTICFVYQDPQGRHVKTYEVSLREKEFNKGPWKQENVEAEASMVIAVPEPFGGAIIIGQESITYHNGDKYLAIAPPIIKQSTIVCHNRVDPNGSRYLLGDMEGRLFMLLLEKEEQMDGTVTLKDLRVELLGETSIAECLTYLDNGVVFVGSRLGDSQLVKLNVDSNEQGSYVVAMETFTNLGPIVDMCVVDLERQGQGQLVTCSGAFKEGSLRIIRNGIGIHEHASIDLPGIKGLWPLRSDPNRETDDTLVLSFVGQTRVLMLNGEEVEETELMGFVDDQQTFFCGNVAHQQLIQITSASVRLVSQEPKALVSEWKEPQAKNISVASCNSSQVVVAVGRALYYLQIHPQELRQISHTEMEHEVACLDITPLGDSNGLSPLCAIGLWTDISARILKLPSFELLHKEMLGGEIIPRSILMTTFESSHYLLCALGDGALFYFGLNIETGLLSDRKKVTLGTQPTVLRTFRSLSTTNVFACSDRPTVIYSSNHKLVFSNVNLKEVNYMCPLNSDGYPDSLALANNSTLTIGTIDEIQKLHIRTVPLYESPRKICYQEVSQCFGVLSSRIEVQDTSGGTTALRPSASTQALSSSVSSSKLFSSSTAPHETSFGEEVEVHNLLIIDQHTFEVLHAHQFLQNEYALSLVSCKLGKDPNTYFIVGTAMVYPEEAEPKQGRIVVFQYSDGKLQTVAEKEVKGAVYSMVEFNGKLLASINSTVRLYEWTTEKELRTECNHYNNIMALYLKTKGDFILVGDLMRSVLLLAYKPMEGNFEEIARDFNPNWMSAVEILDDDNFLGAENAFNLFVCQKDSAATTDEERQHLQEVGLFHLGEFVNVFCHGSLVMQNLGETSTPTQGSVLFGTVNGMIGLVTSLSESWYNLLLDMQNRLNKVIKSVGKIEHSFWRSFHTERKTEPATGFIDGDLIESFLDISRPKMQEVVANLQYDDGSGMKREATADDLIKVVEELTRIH

Usually inhibition stands for the drop in the measured response relative to a control, in per cent. Regarding `O=C1CCC[C@H](N2Cc3ccsc3C2=O)C(=O)N1` [Compound 1, (S)-3-(6-oxo-4,6-dihydro-5H-thieno[2,3-c]pyrrol-5-yl)azepane-2,7-dione], the fold induction at 5 µM with IL-2 turned out to be 0.8. In the test with Molm-13 cells, the cytotoxicity at 10 µM was determined as 6%. The inhibition at 5 µM in the test on IL-1β amounted to 25%; with TNF-α, 22%; with IL-6, 0%.
As for `O=C1CCC[C@H](N2Cc3sccc3C2=O)C(=O)N1` [Compound 2, (S)-3-(4-oxo-4,6-dihydro-5H-thieno[2,3-c]pyrrol-5-yl)azepane-2,7-dione], the fold induction at 5 µM in the test on IL-2 worked out at 1.9. In addition, the cytotoxicity at 10 µM with Molm-13 cells worked out at 32%. Besides, the inhibition at 5 µM stood at 88% with IL-1β, 65% in the test with TNF-α and 31% with IL-6.
For the compound `O=C1CCC[C@H](N2C(=O)c3ccsc3C2=O)C(=O)N1` [Compound 3, (S)-5-(2,7-dioxoazepan-3-yl)-4H-thieno[2,3-c]pyrrole-4,6(5H)-dione], in the test on IL-2, the fold induction at 10 µM turned out to be 0.9. Further, in the test with Molm-13 cells, the cytotoxicity at 10 µM came to 0%. The inhibition at 10 µM in the test with IL-1β, in the test on TNF-α and in the test on IL-6 was 0% each time.
Consider `O=C1NCCCC[C@@H]1N1Cc2sccc2C1=O` [Compound 4, (S)-5-(2-oxoazepan-3-yl)-5,6-dihydro-4H-thieno[2,3-c]pyrrol-4-one], for which the fold induction at 10 µM in the test with IL-2 amounted to 0.7. The cytotoxicity at 10 µM in the test on Molm-13 cells was found to be 0%. Moreover, the inhibition at 10 µM with IL-1β, with TNF-α and in the test with IL-6 was 0% in each case.
`O=C1CCC[C@@H](N2Cc3sccc3C2=O)C(=O)N1` [Compound 5, (R)-3-(4-oxo-4,6-dihydro-5H-thieno[2,3-c]pyrrol-5-yl)azepane-2,7-dione]: the fold induction at 10 µM in the test with IL-2 is 1.4. In addition, the cytotoxicity at 10 µM in the test on Molm-13 cells came out at 24%. Moreover, the inhibition at 10 µM in the test on IL-1β was 0%; with TNF-α, 0%; with IL-6, 1%.
Take `O=C1C[C@H](N2Cc3sccc3C2=O)C(=O)N1` [Compound 6, (S)-3-(4-oxo-4,6-dihydro-5H-thieno[2,3-c]pyrrol-5-yl)pyrrolidine-2,5-dione]: the fold induction at 10 µM with IL-2 turned out to be 1. Besides, in the test with Molm-13 cells, the cytotoxicity at 10 µM was 0%. Moreover, the results for the inhibition at 10 µM in the test on IL-1β, in the test with TNF-α and in the test with IL-6 were 14%, 16% and 8%, respectively.
Consider `O=C1CCC[C@H](N2Cc3cscc3C2=O)C(=O)N1` [Compound 7, (S)-3-(4-oxo-4H-thieno[3,4-c]pyrrol-5(6H)-yl)azepane-2,7-dione], for which the fold induction at 10 µM in the test with IL-2 worked out at 1.7. In addition, the cytotoxicity at 10 µM in the test with Molm-13 cells worked out at 24%. Besides, the inhibition at 10 µM in the test with IL-1β worked out at 60%; with TNF-α, 41%; with IL-6 it was 47%.
Usually remaining activity stands for the signal under treatment as a percentage of the control signal. One may read the viability as a read-out of living cells in per cent, often relative to untreated cells. Take `O=C1CCC(N2Cc3c(csc3CNC(=O)Nc3ccc(C(F)(F)F)c(Cl)c3)C2=O)C(=O)N1` (stereo not shown) [Compound 55, 1-(3-chloro-4-(trifluoromethyl)phenyl)-3-((5-(2,6-dioxopiperidin-3-yl)-4-oxo-5,6-dihydro-4H-thieno[3,4-c]pyrrol-1-yl)methyl)urea]: the cytotoxicity at 0.1 µM in the test with Molm-13 cells (compound concentration 0.1 μM) was 100%. Moreover, the remaining activity at 0.1 µM at GSPT1 came out at 1.51%. Moreover, at GSPT1, the remaining activity at 1 µM was determined as 2.86%. Moreover, the inhibition at 0.1 µM was determined as 99% with IL-1β (compound concentration 0.1 μM), 96% with TNF-α (compound concentration 0.1 μM) and 100% in the test on IL-6 (compound concentration 0.1 μM). The values for the viability at 1 µM in the test with H1048 cells and with MDA-MB-231 cells were 7.63% and 20.2%, respectively. Moreover, the figures for the viability at 10 µM in the test with H1048 cells and with MDA-MB-231 cells were 7.94% and 19%, respectively.
Turning to `Cc1ccc(NC(=O)NCc2scc3c2CN([C@H]2CCCC(=O)NC2=O)C3=O)nc1Cl` [Compound 57, (S)-1-(6-Chloro-5-methylpyridin-2-yl)-3-((5-(2,7-dioxoazepan-3-yl)-4-oxo-5,6-dihydro-4H-thieno[3,4-c]pyrrol-1-yl)methyl)urea], the cytotoxicity at 1 µM with Molm-13 cells (compound concentration 1 μM) was determined as 45%. For the same compound, at GSPT1, the remaining activity at 0.1 µM was 265%. Further, on GSPT1, the remaining activity at 1 µM was determined as 28.4%. Moreover, the results for the inhibition at 1 µM with IL-1β (compound concentration 1 μM), in the test with TNF-α (compound concentration 1 μM) and with IL-6 (compound concentration 1 μM) were 42%, 44% and 32%, respectively. The viability at 1 µM in the test with H1048 cells turned out to be 12.4%; in the test on MDA-MB-231 cells, 107%. The viability at 10 µM in the test on H1048 cells came to 8.7%; in the test on MDA-MB-231 cells, 52%.
